Laboratory results as given in patent US4804665A, “Azaspiro compounds and their use” (Takeda Chemical Industries, Ltd., priority 1986, dated 1989).
Structures can show the parent of a compound that is named as a salt.

What was measured:
[1] = system: CO2-induced amnesia in mice; assay: Effect on CO2-induced amnesia in mice (passive avoidance response); format: in vivo, mice (male ICR); conditions: p.o.; for Anti-amnesia (latency, percent change of the mean time of the vehicle-treated control group): 30 min before the test, saline = 100; for minimal effective dose: Mus musculus, po, mice, read-out: Anti-amnesia MED (minimum effective dose for CO2-induced amnesia)
Protocol: Effect on CO2 -induced amnesia in mice Effect of the compound (I) on […] of passive avoidance response, induced by exposing mice to 100% CO2 gas, was evaluated. Male ICR mice (Japan Clea) aged 5 weeks were used. The experimental apparatus consisted of two chambers, in which one illuminated chamber (9×9×25 cm) was connected to a dark chamber (25×25×30 cm) with a guillotine door. Each mouse was placed in the illuminated chamber and then allowed to enter the dark one. When the mouse entered the dark chamber, the door was closed and AC 0.5 mA footshock was applied to the floor grid of the dark chamber. The mouse can memorize the experience after receiving the uncomfortable stimulus for a few weeks. Next, the consolidation processes of memory were disturbed by an experimental manipulation: Each mouse was placed under the hypoxic condition by being placed into a 4L desiccator filled with 100% CO2 gas, immediately after receiving the footshock in the dark chamber. When his respiratory function was stopped, the mouse was taken out from the desiccator and given an artificial respiration till recovering spontaneous respiration. This procedure disturbed the consolidation of the memory (experience of footshock). On the next day, a retention test was performed to see whether the mouse memorized the footshock or not. In the test, the mouse was again placed in the illuminated compartment and the latency to enter the dark compartment was measured. The mice subjected to hypoxia entered the dark compartment with short latency, 10-20 sec. […] The ameliorating effect of compounds on the amnesia induced by hypoxia was evaluated by the latency time, and was expressed as the percent change of the mean time of the vehicle-treated control group (Table 6.).

mice = assay: General Symptoms (Side Effects) in mice; format: in vivo; parameters: key: +++: marked; ++: moderate; +: mild; -: nondetected; conditions: i.p., observed for 4 hours; for Hypothermia / Sedation / Tremor: central effect; for Diarrhea / Mydriasis / Salivation: peripheral effect
Protocol: General Symptoms (Side Effects) Four mice were used for each group. Mice were placed in stainless steel cages (13×18×25 cm) and after a 1-hr habitation period the compounds were administered. […] Peripheral and central effects of the compounds were estimated with the incidences of diarrhea, salivation and mydriasis and with the incidences of tremor and sedation and a grade of hypothermia, respectively. The compounds which were soluble in saline were solubilized in saline and the other were suspended in 5% arabic gum solution. Each compound was administered intraperitoneally (i.p.).

[2] = LD50 value and Therapeutic index; conditions: mouse, in vivo, po; for LD50: mice; for selectivity ratio: ratio of LD50 value to MED for CO2-induced amnesia
Source text: LD50 value and Therapeutic index
Ten mice were used for each group. LD50 value and therapeutic index were estimated with the dose (mg/kg, p.o.) which induced death in 50% of mice and with a ratio of LD50 value to a minimum effective dose (MED) for CO2 -induced amnesia, respectively.

[3] = dose 0.3 mg/kg, * P < 0.05, ** P < 0.01

SMILES	Anti-amnesia (latency, percent change of the mean time of the vehicle-treated control group) ([1]; dose 0.1 mg/kg, * P < 0.05) [%]	Hypothermia (mice)	Sedation (mice)	Tremor (mice)	Diarrhea (mice)	Mydriasis (mice)	Salivation (mice)	minimal effective dose [1] [mg/kg]	Anti-amnesia (latency, percent change of the mean time of the vehicle-treated control group) [1, 3] [%]	LD50 [2] [mg/kg]	selectivity ratio [2]	Anti-amnesia (latency, percent change of the mean time of the vehicle-treated control group) ([1]; dose 1.0 mg/kg, * P < 0.05) [%]
CON1C(=O)CC2(CCN(C)CC2)C1=O.Cl [Example 1, 2-Methoxy-8-methyl-2,8-diazaspiro[4,5]decane-1,3-dione hydrochloride]	277	-	++	++	-	-	+++					
CON1C(=O)CC2(CCNCC2)C1=O [Example 9, 2-Methoxy-2,8-diazaspiro[4,5]decane-1,3-dionehydrochloride]	227	+	++	-	++	-	+++	0.1	321	2010	20100	
CON1C(=O)CC2(CCN(C(=O)OCCBr)CC2)C1=O [Example 22, 8-(2-Bromoethoxycarbonyl)-2-methoxy-2,8-diazaspiro[4,5]decane-1,3-dione]		+	+	-	+	+	+					311
CCN1C(=O)CC2(CCN(C)CC2)C1=O [RS-86, reference compound]		+++	+++	+	+++	++	+++	0.3	258	574	1910	
